{"source": "ChEMBL document CHEMBL2396621", "about": "“Design, synthesis and biological evaluation of 2-mercapto-3-phenethylquinazoline bearing anilide fragments as potential antitumor agents: molecular docking study” (2013)", "type_in_all_cases": "functional", "key": {"LOX IMVI": {"tested_on": "LOX IMVI", "assay": "Cytotoxicity against human LOXIMVI cells assessed as growth inhibition at 10 uM after 48 hrs by coulter counter analysis", "conditions": "read-out: GI"}, "IGROV-1": {"tested_on": "IGROV-1", "assay": "Cytotoxicity against human IGROV1 cells assessed as growth inhibition at 10 uM after 48 hrs by coulter counter analysis", "conditions": "IGROV-1, 48 h, read-out: GI"}, "COLO 205": {"tested_on": "COLO 205", "assay": "Cytotoxicity against human COLO205 cells assessed as growth inhibition at 10 uM after 48 hrs by coulter counter analysis", "conditions": "COLO 205, 48 h, read-out: GI"}, "[1]": {"assay": "Cytotoxicity against human NCI-ADR-RES cells assessed as growth inhibition at 10 uM after 48 hrs by coulter counter analysis", "conditions": "read-out: GI"}, "SF-295": {"tested_on": "SF-295", "assay": "Cytotoxicity against human SF295 cells assessed as growth inhibition at 10 uM after 48 hrs by coulter counter analysis", "conditions": "SF-295, 48 h, read-out: GI"}, "MDA-MB-435": {"tested_on": "MDA-MB-435", "assay": "Cytotoxicity against human MDA-MB-435 cells assessed as growth inhibition at 10 uM after 48 hrs by coulter counter analysis", "conditions": "MDA-MB-435, 48 h, read-out: GI"}, "786-0": {"tested_on": "786-0", "assay": "Cytotoxicity against human 786-0 cells assessed as growth inhibition at 10 uM after 48 hrs by coulter counter analysis", "conditions": "786-0, 48 h, read-out: GI"}, "HCT-116": {"tested_on": "HCT-116", "assay": "Cytotoxicity against human HCT116 cells assessed as growth inhibition at 10 uM after 48 hrs by coulter counter analysis", "conditions": "HCT-116, 48 h, read-out: GI"}, "HCC 2998": {"tested_on": "HCC 2998", "assay": "Cytotoxicity against human HCC2998 cells assessed as growth inhibition at 10 uM after 48 hrs by coulter counter analysis", "conditions": "HCC 2998, 48 h, read-out: GI"}, "SW-620": {"tested_on": "SW-620", "assay": "Cytotoxicity against human SW620 cells assessed as growth inhibition at 10 uM after 48 hrs by coulter counter analysis", "conditions": "SW-620, 48 h, read-out: GI"}, "UACC-257": {"tested_on": "UACC-257", "assay": "Cytotoxicity against human UACC257 cells assessed as growth inhibition at 10 uM after 48 hrs by coulter counter analysis", "conditions": "UACC-257, 48 h, read-out: GI"}, "SF-539": {"tested_on": "SF-539", "assay": "Cytotoxicity against human SF539 cells assessed as growth inhibition at 10 uM after 48 hrs by coulter counter analysis", "conditions": "SF-539, 48 h, read-out: GI"}, "SK-OV-3": {"tested_on": "SK-OV-3", "assay": "Cytotoxicity against human SKOV3 cells assessed as growth inhibition at 10 uM after 48 hrs by coulter counter analysis", "conditions": "SK-OV-3, 48 h, read-out: GI"}, "CAKI-1": {"tested_on": "CAKI-1", "assay": "Cytotoxicity against human Caki1 cells assessed as growth inhibition at 10 uM after 48 hrs by coulter counter analysis", "conditions": "CAKI-1, 48 h, read-out: GI"}, "PC-3": {"tested_on": "PC-3", "assay": "Cytotoxicity against human PC3 cells assessed as growth inhibition at 10 uM after 48 hrs by coulter counter analysis", "conditions": "PC-3, 48 h, read-out: GI"}, "A549": {"tested_on": "A549", "assay": "Cytotoxicity against human A549 cells assessed as growth inhibition at 10 uM after 48 hrs by coulter counter analysis", "conditions": "A549, 48 h, read-out: GI"}, "BT-549": {"tested_on": "BT-549", "assay": "Cytotoxicity against human BT549 cells assessed as growth inhibition at 10 uM after 48 hrs by coulter counter analysis", "conditions": "BT-549, 48 h, read-out: GI"}, "SNB-19": {"tested_on": "SNB-19", "assay": "Cytotoxicity against human SNB19 cells assessed as growth inhibition at 10 uM after 48 hrs by coulter counter analysis", "conditions": "SNB-19, 48 h, read-out: GI"}, "MDA-MB-231": {"tested_on": "MDA-MB-231", "assay": "Cytotoxicity against human MDA-MB-231 cells assessed as growth inhibition at 10 uM after 48 hrs by coulter counter analysis", "conditions": "MDA-MB-231, 48 h, read-out: GI"}, "SNB-75": {"tested_on": "SNB-75", "assay": "Cytotoxicity against human SNB75 cells assessed as growth inhibition at 10 uM after 48 hrs by coulter counter analysis", "conditions": "SNB-75, 48 h, read-out: GI"}, "NCI-H522": {"tested_on": "NCI-H522", "assay": "Cytotoxicity against human NCI-H522 cells assessed as growth inhibition at 10 uM after 48 hrs by coulter counter analysis", "conditions": "NCI-H522, 48 h, read-out: GI"}, "KM12": {"tested_on": "KM12", "assay": "Cytotoxicity against human KM12 cells assessed as growth inhibition at 10 uM after 48 hrs by coulter counter analysis", "conditions": "KM12, 48 h, read-out: GI"}, "OVCAR-5": {"tested_on": "OVCAR-5", "assay": "Cytotoxicity against human OVCAR5 cells assessed as growth inhibition at 10 uM after 48 hrs by coulter counter analysis", "conditions": "OVCAR-5, 48 h, read-out: GI"}, "NCI-H460": {"tested_on": "NCI-H460", "assay": "Cytotoxicity against human NCI-H460 cells assessed as growth inhibition at 10 uM after 48 hrs by coulter counter analysis", "conditions": "NCI-H460, 48 h, read-out: GI"}, "RXF 393": {"tested_on": "RXF 393", "assay": "Cytotoxicity against human RXF393 cells assessed as growth inhibition at 10 uM after 48 hrs by coulter counter analysis", "conditions": "RXF 393, 48 h, read-out: GI"}, "T47D": {"tested_on": "T47D", "assay": "Cytotoxicity against human T47D cells assessed as growth inhibition at 10 uM after 48 hrs by coulter counter analysis", "conditions": "read-out: GI"}, "UO-31": {"tested_on": "UO-31", "assay": "Cytotoxicity against human UO31 cells assessed as growth inhibition at 10 uM after 48 hrs by coulter counter analysis", "conditions": "UO-31, 48 h, read-out: GI"}, "A498": {"tested_on": "A498", "assay": "Cytotoxicity against human A498 cells assessed as growth inhibition at 10 uM after 48 hrs by coulter counter analysis", "conditions": "A498, 48 h, read-out: GI"}, "MCF7": {"tested_on": "MCF7", "assay": "Cytotoxicity against human MCF7 cells assessed as growth inhibition at 10 uM after 48 hrs by coulter counter analysis", "conditions": "MCF7, 48 h, read-out: GI"}, "Malme-3M": {"tested_on": "Malme-3M", "assay": "Cytotoxicity against human MALME-3M cells assessed as growth inhibition at 10 uM after 48 hrs by coulter counter analysis", "conditions": "read-out: GI"}, "MDA-MB-468": {"tested_on": "MDA-MB-468", "assay": "Cytotoxicity against human MDA-MB-468 cells assessed as growth inhibition at 10 uM after 48 hrs by coulter counter analysis", "conditions": "MDA-MB-468, 48 h, read-out: GI"}, "HCT-15": {"tested_on": "HCT-15", "assay": "Cytotoxicity against human HCT15 cells assessed as growth inhibition at 10 uM after 48 hrs by coulter counter analysis", "conditions": "HCT-15, 48 h, read-out: GI"}, "OVCAR-3": {"tested_on": "OVCAR-3", "assay": "Cytotoxicity against human OVCAR3 cells assessed as growth inhibition at 10 uM after 48 hrs by coulter counter analysis", "conditions": "OVCAR-3, 48 h, read-out: GI"}, "DU-145": {"tested_on": "DU-145", "assay": "Cytotoxicity against human DU145 cells assessed as growth inhibition at 10 uM after 48 hrs by coulter counter analysis", "conditions": "DU-145, 48 h, read-out: GI"}, "OVCAR-8": {"tested_on": "OVCAR-8", "assay": "Cytotoxicity against human OVCAR8 cells assessed as growth inhibition at 10 uM after 48 hrs by coulter counter analysis", "conditions": "OVCAR-8, 48 h, read-out: GI"}, "TK-10": {"tested_on": "TK-10", "assay": "Cytotoxicity against human TK10 cells assessed as growth inhibition at 10 uM after 48 hrs by coulter counter analysis", "conditions": "TK-10, 48 h, read-out: GI"}, "SK-MEL-5": {"tested_on": "SK-MEL-5", "assay": "Cytotoxicity against human SK-MEL-5 cells assessed as growth inhibition at 10 uM after 48 hrs by coulter counter analysis", "conditions": "SK-MEL-5, 48 h, read-out: GI"}}}
{"smiles": "COc1cc(OC(=O)CSc2nc3ccccc3c(=O)n2CCc2ccccc2)cc(OC)c1OC", "values": [{"measurement": "inhibition of growth at 10 µM", "setting": "LOX IMVI", "value": "< 10", "unit": "%"}, {"measurement": "inhibition of growth at 10 µM", "setting": "IGROV-1", "value": 11, "unit": "%"}, {"measurement": "inhibition of growth at 10 µM", "setting": "COLO 205", "value": "< 10", "unit": "%"}, {"measurement": "inhibition of growth at 10 µM", "setting": "[1]", "value": 11, "unit": "%"}, {"measurement": "inhibition of growth at 10 µM", "setting": "SF-295", "value": 13, "unit": "%"}, {"measurement": "inhibition of growth at 10 µM", "setting": "MDA-MB-435", "value": "< 10", "unit": "%"}, {"measurement": "inhibition of growth at 10 µM", "setting": "786-0", "value": "< 10", "unit": "%"}, {"measurement": "inhibition of growth at 10 µM", "setting": "HCT-116", "value": 20, "unit": "%"}, {"measurement": "inhibition of growth at 10 µM", "setting": "HCC 2998", "value": "< 10", "unit": "%"}, {"measurement": "inhibition of growth at 10 µM", "setting": "SW-620", "value": "< 10", "unit": "%"}, {"measurement": "inhibition of growth at 10 µM", "setting": "UACC-257", "value": "< 10", "unit": "%"}, {"measurement": "inhibition of growth at 10 µM", "setting": "SF-539", "value": "< 10", "unit": "%"}, {"measurement": "inhibition of growth at 10 µM", "setting": "SK-OV-3", "value": "< 10", "unit": "%"}, {"measurement": "inhibition of growth at 10 µM", "setting": "CAKI-1", "value": 28, "unit": "%"}, {"measurement": "inhibition of growth at 10 µM", "setting": "PC-3", "value": "< 10", "unit": "%"}, {"measurement": "inhibition of growth at 10 µM", "setting": "A549", "value": 10, "unit": "%"}, {"measurement": "inhibition of growth at 10 µM", "setting": "BT-549", "value": 10, "unit": "%"}, {"measurement": "inhibition of growth at 10 µM", "setting": "SNB-19", "value": "< 10", "unit": "%"}, {"measurement": "inhibition of growth at 10 µM", "setting": "MDA-MB-231", "value": 20, "unit": "%"}, {"measurement": "inhibition of growth at 10 µM", "setting": "SNB-75", "value": 12, "unit": "%"}, {"measurement": "inhibition of growth at 10 µM", "setting": "NCI-H522", "value": "< 10", "unit": "%"}, {"measurement": "inhibition of growth at 10 µM", "setting": "KM12", "value": "< 10", "unit": "%"}, {"measurement": "inhibition of growth at 10 µM", "setting": "OVCAR-5", "value": "< 10", "unit": "%"}, {"measurement": "inhibition of growth at 10 µM", "setting": "NCI-H460", "value": 26, "unit": "%"}, {"measurement": "inhibition of growth at 10 µM", "setting": "RXF 393", "value": "< 10", "unit": "%"}, {"measurement": "inhibition of growth at 10 µM", "setting": "T47D", "value": 26, "unit": "%"}, {"measurement": "inhibition of growth at 10 µM", "setting": "UO-31", "value": 37, "unit": "%"}, {"measurement": "inhibition of growth at 10 µM", "setting": "A498", "value": "< 10", "unit": "%"}, {"measurement": "inhibition of growth at 10 µM", "setting": "MCF7", "value": 34, "unit": "%"}, {"measurement": "inhibition of growth at 10 µM", "setting": "Malme-3M", "value": "< 10", "unit": "%"}, {"measurement": "inhibition of growth at 10 µM", "setting": "MDA-MB-468", "value": "< 10", "unit": "%"}, {"measurement": "inhibition of growth at 10 µM", "setting": "HCT-15", "value": 48, "unit": "%"}, {"measurement": "inhibition of growth at 10 µM", "setting": "OVCAR-3", "value": "< 10", "unit": "%"}, {"measurement": "inhibition of growth at 10 µM", "setting": "DU-145", "value": "< 10", "unit": "%"}, {"measurement": "inhibition of growth at 10 µM", "setting": "OVCAR-8", "value": "< 10", "unit": "%"}, {"measurement": "inhibition of growth at 10 µM", "setting": "TK-10", "value": "< 10", "unit": "%"}, {"measurement": "inhibition of growth at 10 µM", "setting": "SK-MEL-5", "value": "< 10", "unit": "%"}]}
